Marks after values point to notes of the source that are not given here.
Legend:
[1] = tested on: ED-2 (Kupffer cells); assay: Immunohistochemical staining of liver sections, ED-2 positive cells (Kupffer cells); type: in vivo, albino Wistar rats; settings: mean±SEM, 8 rats
Experimental: (§1) The experimental hepatocarcinogenesis model was developed according to a protocol by Espandiaria et al. that was adapted for our purposes. To initiate and promote hepatocarcinogenesis, diethylnitrosamine (DEN) and 2-acetylaminofluorene (2-AAF) were used, respectively. For hepatocarcinogenesis initiation in this model, a single DEN dose (200 mg/kg b.wt.) dissolved in saline was injected intraperitoneally. After initiation, all rats underwent one period of 5-days fasting, as mitotic proliferative stimuli. To promote hepatocarcinogenesis, 2-acetylaminofluorene (2-AAF) was introduced in the form of six daily intragastric doses (30 mg/kg in 1% Tween 80); two weeks after DEN treatment.
(§2) Safranal at doses of 25 mg/kg by weight (b.wt.) and 50 mg/kg b.wt, was administrated orally to rats. These doses have been reported to suppress chemically-induced oxidative damage in rats. A total of 40 adult male albino Wistar rats were randomly divided into […] (n=8) and were subjected to different treatments. Group 1 (control) was orally administered distilled water (5 ml/kg b.wt.) throughout the experimental duration and were injected with a single dose of saline. Group 2 (Safranal only) was subjected to a safranal dose (50 mg/kg b.wt.) through oral administration for the duration of the experimental period. Hepatocarcinogenesis was induced by DEN and promoted by 2-AAF, as reported previously, in group 3 (HCC). Rats in protective groups (groups 4-5) were treated with low/high doses of saffron-based safranal suspensions, at the beginning of promotion periods and continued for 12 weeks. The low dosage treatment with safranal consisted of 25 mg/kg b.wt., and the high dosage treatment consisted of 50 mg/kg b.wt. The experimental design is illustrated in FIG. 1.
(§3) For immunohistochemical staining, mounted sections were immersed in sodium citrate buffer (0.1 M, pH 6) and placed in a water bath for 15 minutes to unmask antigen epitopes. […] Ten fields were randomly selected to quantify positive cells, in individual samples (400×). […]

[2] = tested on: iNOS; assay: Immunohistochemical staining of liver sections, iNOS positive cells; type: in vivo, albino Wistar rats; settings: mean±SEM, 8 rats
Experimental: as §1, §2, §3

[3] = tested on: Ki-67; assay: Immunohistochemical staining of liver sections, Ki-67 (cell proliferation); type: in vivo, albino Wistar rats
Experimental: as §1
(§4) Safranal at doses of 25 mg/kg by weight (b.wt.) and 50 mg/kg b.wt, was administrated orally to rats. These doses have been reported to suppress chemically-induced oxidative damage in rats. A total of 40 adult male albino Wistar rats were randomly divided into […] (n=8) and were subjected to different treatments. […]
as §3

[4] = tested on: DNA fragmentation (TUNEL-positive cells); assay: TUNEL assay of liver sections (apoptosis); type: in vivo, albino Wistar rats
Experimental: as §1
as §4, with “treatments. Group 1 (control) was orally administered distilled water (5 ml/kg b.wt.) throughout the experimental duration and were injected with a single dose of saline.” for “treatments.”
TUNEL assay was performed for the purpose of assessing apoptosis. […] DNA fragmentation, a key indicator of apoptosis, is detected using this kit. […]

[5] = tested on: HDAC; assay: HDAC colorimetric assay in liver homogenate; type: in vivo, albino Wistar rats
Experimental: as §1
Safranal at doses of 25 mg/kg by weight (b.wt.) and 50 mg/kg b.wt, was administrated orally to rats. These doses have been reported to suppress chemically-induced oxidative damage in rats. A total of 40 adult male albino Wistar rats were randomly divided into […] (n=8) and were subjected to different treatments. Group 1 (control) was orally administered distilled water (5 ml/kg b.wt.) throughout the experimental duration and were injected with a single dose of saline. Group 2 (Safranal only) was subjected to a safranal dose (50 mg/kg b.wt.) through oral administration for the duration of the experimental period. […]

[6] = tested on: caspase-3 and -7 in HepG2 cells; assay: Caspase-3 and -7 assay (Caspase-Glo 3/7); type: cell-based, human; settings: 1 mM, 48 hours
Experimental: (§5) HepG2, were cultured in RPMI 1640 medium (HyClone, USA) and 1% of 100 U/ml penicillin and 100 ug/ml streptomycin (Sigma, USA) supplemented with 10% fetal bovine serum (Sigma, USA) at 37° C. in a humidified 5% CO2 atmosphere. Cells were sub-cultured each 4-6 days using trypsin 0.25% (Hyclone, USA).
HepG2 cells were seeded in 96-well plates at the density of 10000 cells/well and grown in 100 uL of complete growth medium. Complete growth medium was replaced by serum-free medium after cells were allowed to attach for 24 hours; after which cells were incubated for at least 12 hours. Cells were incubated for 48 hours after treatment with various concentrations of safranal (1 mM, 0.7 mM, 0.5 mM) prepared from 20 mM stock solution. After incubation period, caspase-3 and -7 activities were measured using Caspase-Glo 3/7 luminescent assay kit according to manufacturer's instruction (Promega, USA).

[7] = tested on: p-IkB in HepG2 cells; assay: Western blotting, p-IkB; type: cell-based, human; settings: starting at 24 hours of safranal treatment (1 mM)
Experimental: as §5
(§6) In 100 mm plates, HepG2 cells were seeded at a density of 2×10^4 in complete growth medium. Cells were allowed to attach for 24 hours, after which complete growth medium was replaced by serum-free medium. Cells were treated with safranal at a concentration of 1 mM (20 mM stock). Plates were incubated for 6, 12, 24, and 48 hours in a humidified 5% CO2 atmosphere at 37° C. At indicated times, 1 mL of cell supernatant was obtained from each plate and was stored at −80° C. for further analysis by ELISA. After which whole cell lysates were prepared. Bicinchoninic acid (BCA) assay (Sigma-Aldrich, USA) was used to determine concentration of protein. Thirty μg of protein were loaded onto 10% SDS polyacrylamide electrophoresis gels. The gels were transferred onto nitrocellulose membranes prior to immunodetection processing with anti-p-IkB-alpha, anti-H2AX (Cell Signaling Technology, USA), and with anti-rabbit IgG peroxidase conjugated secondary antibodies. […]

[8] = tested on: p-H2AX in HepG2 cells; assay: Western blotting, p-H2AX; type: cell-based, human; settings: 24 hours of safranal treatment (1 mM)
Experimental: as §5, §6

[9] = tested on: alveolar human lung cancer A549; settings: A549 cell line, reported in the background; cited from earlier work
[10] = HCC (DEN/2-AAF) rats + safranal high dose 50 mg/kg b.wt. oral, 12 weeks
[11] = HCC (DEN/2-AAF) rats + safranal low dose 25 mg/kg b.wt. oral, 12 weeks
[12] = safranal alone 50 mg/kg b.wt. oral, no DEN (group 2)

In the case of `CC1=C(C=O)C(C)(C)CC=C1` [Safranal, 2,6,6-trimethylcyclohexa-1,3-diene-1-carbaldehyde], the ED-2 positive cells [1, 10] is reported as 46.44 ± 3.12^b positive cells/field, the ED-2 positive cells [1, 11] is reported as 46.75 ± 3.04^b positive cells/field and the ED-2 positive cells [1, 12] is reported as 39.30 ± 1.77 positive cells/field. For the same molecule, the iNOS positive cells [2, 10] was 2.57 ± 0.30^b positive cells/field, the iNOS positive cells [2, 11] was 5.09 ± 0.26^a&b positive cells/field and the iNOS positive cells [2, 12] was 0.87 ± 0.04 positive cells/field. The “number of Ki-67 positive cells” value ([3]; low/high doses of safranal in animals exposed to DEN (groups 4-5)) was “dramatically reduced the number of Ki-67 positive cells”, the “number of Ki-67-expressing hepatocytes” value ([3]; safranal alone (group 2)) was “did not induce a significant change” and the “number of TUNEL-positive cells” value ([4]; low/high doses of safranal in animals exposed to DEN, compared to group 3) was “significant increase in the number of both TUNEL- and M30 CytoDeath-positive cells”. For the same molecule, the “number of TUNEL-positive cells” value ([4]; safranal only (group 2), compared to control group) was “did not exhibit a notable change”, the “HDAC activity in liver” value ([5]; low/high doses of safranal, DEN-treated (groups 4-5)) was “restored HDAC activity to the normal range” and the “HDAC activity in liver” value ([5]; safranal alone (group 2), compared to control) was “did not change HDAC activity”. The “caspase-3 and -7 activities” value [6] was “significant increase in caspase-3 and -7 activities”, the “level of p-IkB protein” value [7] was “transiently decreased” and the “protein level of p-H2AX” value [8] was “remarkable induction of p-H2AX”. The apoptosis [9] was “induce apoptosis”.
